Test results from patent US9808469B2, “Antitumor activity of multi-kinase inhibitors in triple negative breast cancer” (ENTRECHEM, S.L, priority 2014, dated 2017).
Where two headings read alike, the source gives them in different places.

Assays:
[1] = system: tyrosine and serine/threonine kinases; experiment: Biochemical kinase assays
[2] = system: HS578T cells; experiment: MTT metabolization, inhibition of HS578T cell proliferation; format: cell-based; details: Homo sapiens, Hs-578T, read-out: Percentage inhibition Formula (III) mean
Description: (§1) These triple negative breast cancer cell lines were obtained from the American Type Culture Collection Cell Biology Collection (ATCC) (Manassas, Va.). The medium was changed every 2 days.
(§2) Cell proliferation and growth experiments were carried out using 3-(4,5-dimethylthiazol-2-yl)-2,5-diphenyltetrazolium bromide (MTT) uptake assays, where MTT is reduced to purple formazan by the mitochondria of living cells. Increase in cell number is detected by augmented MTT metabolization, and decrease in cell number is reflected by a decrease. […] The cells were treated with the drug at different concentrations to plot the dose-response curves in all cancer cell lines using in the study. […] After treatment, each well was replaced with 250 μL of fresh medium containing MTT ([…]) and incubated for 1 hour. The medium was then removed and 500 μL of dimethyl sulfoxide was added to each well. The plate was agitated in the dark for 5 minutes to dissolve the MTT-formazan crystals. The absorbance of the samples was recorded at 562 nm in a multi-well plate reader (BMG labtech). Results were plotted as the mean values of quadruplicates from a representative experiment that was repeated at least two independent times.
(§3) Combination index values less than 1 indicate synergism, values equal to 1 indicate an additive effect, whereas values greater than 1 indicate antagonism. Combination index values from three independent experiments were generated.

[3] = system: PI3K/mTOR/AKT and JAK/STAT pathway; experiment: Western Blot of PI3K/mTOR/AKT and JAK/STAT pathway components; format: cell-based; details: 500 nM, up to 24 h
Description: Western-blot and phospho-array kits were used for evaluation of signaling intermediates.
HS578T and BT549 cell lines were grown in DMEM 10% of FBS and at 70% confluence were treated with Formula (III) at 500 nM for 6, 12 and 24 hours. Cells were washed with phosphate-buffered saline (PBS) (137 mM NaCl, 2.7 mM KCl, 8 mM Na2HPO4, 1.5 mM KH2PO4) and lysed in ice-cold lysis buffer (20 mM Tris-HCl [pH 7.0], 140 mM NaCl, 50 mM EDTA, 10% glycerol, 1% Nonidet P-40, 1 μM pepstatin, 1 μg/mL aprotinin, 1 μg/mL leupeptin, 1 mM phenylmethyl sulfonyl fluoride, 1 mM sodium orthovanadate). Lysates were centrifuged at 10000 g at 4° C. for 10 minutes. The protein level in the supernatants was quantified using BCA protein assay (Sigma Aldrich). A total of 50 μg of protein of each sample was used for analysis. Samples were then boiled in electrophoresis sample buffer and placed on 6%-15% sodium dodecyl sulfate-polyacrylamide gel electrophoresis (SDS-PAGE) gels, depending on the molecular weight of the proteins to be analyzed. Briefly, after electrophoresis, proteins in gels were transferred to polyvinylidene difluoride membranes (Millipore Corporation). Membranes were blocked in Tris-buffered saline with Tween (TBST) (100 mM Tris [pH 7.5], 150 mM NaCl, 0.05% Tween 20) containing 1% of bovine serum albumin for 1 h and then incubated overnight with the corresponding antibody. […]

[4] = system: HS578T, BT549 and MDA-MB-231 cells; experiment: Three-dimensional growth in matrigel (spherical structures); format: cell-based
Description: For three-dimensional cell culture, the bottom of 24 multi-dish plates was covered with a thin ice-cold 4% Matrigel (BD Biosciences) layer and incubated at 37° C. for 20 minutes to allow the Matrigel to solidify. Matrigel was added to conventional DMEM. The desired cells were tripsinized (0.25% trypsin-EDTA solution (2.5 g/L of trypsin, 0.38 g/L of EDTA) collected and resuspended to a final concentration of 12.500 cls/mL in 2% Matrigel. The cell suspension was added over the solidified Matrigel layer and incubated at 37° C. The medium was changed after 4 days and the cell culture was daily visualized under a microscope for phenotype monitoring. The cells were cultured for 10 days.

[5] = system: BT-549 cells; experiment: MTT metabolization, inhibition of BT-549 cell proliferation; format: cell-based; details: Homo sapiens, read-out: Percentage inhibition Formula (III) mean
Description: as §1, §2, §3

[6] = system: animal models; experiment: Studies in animal models; details: in vivo

SMILES: C[C@]12O[C@H](C[C@@H](O)[C@H]1O)n1c3ccccc3c3c4c(c5c6ccccc6n2c5c31)C(=O)NC4=O [Formula (III)]
- concentration range of kinase affinity and inhibition [1]: nanomolar and subnanomolar range
- percent inhibition of cell proliferation at 0.1 µM ([2]; Formula (III) 100 nM alone (Table 14)): 76.2%
- percent inhibition of cell proliferation at 0.1 µM ([2]; Formula (III) 100 nM alone (Table 15)): 93.5%
- percent inhibition of cell proliferation at 0.12 µM ([2]; Formula (III) 120 nM alone (Table 12)): 74.9%
- percent inhibition of cell proliferation at 0.12 µM ([2]; Formula (III) 120 nM alone): 74.9%
- percent inhibition of cell proliferation at 0.18 µM ([2]; Formula (III) 180 nM alone (Table 12)): 67.5%
- percent inhibition of cell proliferation at 0.18 µM ([2]; Formula (III) 180 nM alone): 67.5%
- percent inhibition of cell proliferation at 0.2 µM ([2]; Formula (III) 200 nM alone (Table 13)): 67.8%
- percent inhibition of cell proliferation at 0.2 µM ([2]; Formula (III) 200 nM alone (Table 14)): 72.4%
- percent inhibition of cell proliferation at 0.2 µM ([2]; Formula (III) 200 nM alone (Table 15)): 77.6%
- percent inhibition of cell proliferation at 0.24 µM ([2]; Formula (III) 240 nM alone (Table 12)): 50.8%
- percent inhibition of cell proliferation at 0.24 µM ([2]; Formula (III) 240 nM alone): 50.8%
- percent inhibition of cell proliferation at 0.26 µM ([2]; Formula (III) 260 nM alone (Table 13)): 59.9%
- percent inhibition of cell proliferation at 0.3 µM ([2]; Formula (III) 300 nM alone (Table 12)): 46.8%
- percent inhibition of cell proliferation at 0.3 µM ([2]; Formula (III) 300 nM alone (Table 13)): 52.2%
- percent inhibition of cell proliferation at 0.3 µM ([2]; Formula (III) 300 nM alone (Table 14)): 66.3%
- percent inhibition of cell proliferation at 0.3 µM ([2]; Formula (III) 300 nM alone (Table 15)): 72.3%
- percent inhibition of cell proliferation at 0.3 µM ([2]; Formula (III) 300 nM alone): 46.8%
- percent inhibition of cell proliferation at 0.38 µM ([2]; Formula (III) 380 nM alone (Table 13)): 48.9%
- percent inhibition of cell proliferation at 0.4 µM ([2]; Formula (III) 400 nM alone (Table 14)): 57.4%
- percent inhibition of cell proliferation at 0.4 µM ([2]; Formula (III) 400 nM alone (Table 15)): 66.6%
- phosphorylation of AKT, p70 S6 and STAT3 [3]: inhibits components of the PI3K/mTOR/AKT and JAK/STAT pathway
- diameter of spherical structures in matrigel [4]: strongly decreased the diameter of these spheres
- inhibition at 0.1 µM ([5]; BT-549, Formula (III) 100 nM alone (Table 9)): 68.8%
- inhibition at 0.1 µM ([5]; BT-549, Formula (III) 100 nM alone (Table 10)): 90.8%
- inhibition at 0.12 µM ([5]; BT-549, Formula (III) 120 nM alone (Table 7)): 75.5%
- inhibition at 0.12 µM ([5]; BT-549, Formula (III) 120 nM alone): 75.5%
- inhibition at 0.18 µM ([5]; BT-549, Formula (III) 180 nM alone (Table 7)): 63.7%
- inhibition at 0.18 µM ([5]; BT-549, Formula (III) 180 nM alone): 63.7%
- inhibition at 0.2 µM ([5]; BT-549, Formula (III) 200 nM alone (Table 8)): 98.5%
- inhibition at 0.2 µM ([5]; BT-549, Formula (III) 200 nM alone (Table 9)): 72.1%
- inhibition at 0.2 µM ([5]; BT-549, Formula (III) 200 nM alone (Table 10)): 71.4%
- inhibition at 0.24 µM ([5]; BT-549, Formula (III) 240 nM alone (Table 7)): 45%
- inhibition at 0.24 µM ([5]; BT-549, Formula (III) 240 nM alone): 45%
- inhibition at 0.26 µM ([5]; BT-549, Formula (III) 260 nM alone (Table 8)): 92.9%
- inhibition at 0.3 µM ([5]; BT-549, Formula (III) 300 nM alone (Table 7)): 31.9%
- inhibition at 0.3 µM ([5]; BT-549, Formula (III) 300 nM alone (Table 8)): 78%
- inhibition at 0.3 µM ([5]; BT-549, Formula (III) 300 nM alone (Table 9)): 55.9%
- inhibition at 0.3 µM ([5]; BT-549, Formula (III) 300 nM alone (Table 10)): 62.8%
- inhibition at 0.3 µM ([5]; BT-549, Formula (III) 300 nM alone): 31.9%
- inhibition at 0.38 µM ([5]; BT-549, Formula (III) 380 nM alone (Table 8)): 75.8%
- inhibition at 0.4 µM ([5]; BT-549, Formula (III) 400 nM alone (Table 9)): 36.3%
- inhibition at 0.4 µM ([5]; BT-549, Formula (III) 400 nM alone (Table 10)): 38.5%
- toxicities in animal models [6]: no evidence of toxicities
